The text below walks through data of US11389569B2, “Biodegradable, porous, thermally responsive injectable hydrogel as soft tissue defect filler” (University of Pittsburgh—Of the Commonwealth System of …, priority 2017, dated 2022).

The nature of data set [1]: Mannitol particle size, initially and after mixing with VP10 hydrogel solution. The class given is physicochemical. The text has this: All chemicals were purchased from Sigma-Aldrich unless otherwise stated. N-isopropylacrylamide (NIPAAm) was purified by recrystallization from hexane and vacuum-dried. 2-Hydroxyethyl methacrylate (HEMA) was purified by vacuum distillation. Vinylpyrrolidone (VP), lactide, benzoyl peroxide (BPO), sodium methoxide (NaOCH3), methacryloyl chloride, methacrylic acid (MAA) and other solvents were used as received. D-mannitol particles were sieved to obtain the portion between 170 and 230 meshes.

For data set [2], the system named is SMCs. The data set is described as follows: Cytotoxicity and proliferation of SMCs (mitochondrial activity assay). The class given is cell-based. To be noted: dissolved mannitol.

For the compound `OC[C@@H](O)[C@@H](O)[C@H](O)[C@H](O)CO` [mannitol, D-mannitol], the “particle size change after mixing with hydrogel solution” value in data set [1] (mixed with VP10 hydrogel solution for 10 min) is “did not decrease significantly”. For the same compound, in data set [1] (sieved, 170-230 mesh), the “initial size of sieved mannitol particles” value turned out to be 68.0 μm. The “concentration up to which no cytotoxicity was shown” value in data set [2] is on record as “up to 100 mM”.
